Assay results published in patent publication US9284345B2 (priority 2007, dated 2016).

How the values were obtained:
androgen receptor = experiment: Antiandrogen / SARM / androgen profile observed on structural change; conditions: structure-activity observation in estratriene derivatives
Excerpt: Preferred positions on the steroid to this change in activities are 3, 4, 11β, 16 and 17α. […] Moreover, when we changed the 4-fluoro by a 4-chloro on EM-6583, we obtained a pure androgen (EM-5697). Similarly, when we increased the size of the chain at 17α-position on (1,4-phenylene as a spacer group), EM-8419 became a SARM. Again, when we changed the 4-fluoro by a 4-chloro on EM-8419, we obtained a pure androgen (EM-5313).
We also believed that a larger size increase could reverse the observed tendency (androgen to SARM or antiandrogen). Thus, it is not obvious to make good predictions of the biological activity of this compound family but some trends are observable.

Intact Rat = experiment: In vivo activity in intact rat (organ and muscle weight); conditions: for In Vivo Intact Rat % change vs Intact CONT (Intact CONT = +100%; CX CONT = 0%) Bulbo / In Vivo Intact Rat % change vs Intact CONT (Intact CONT = +100%; CX CONT = 0%) VP: 0.1 mg/rat/os/ID; for In Vivo Intact Rat % change vs Intact CONT (Intact CONT = +100%; CX CONT = 0%) Bulbo: bulbocavernosus muscles weight; for In Vivo Intact Rat % change vs Intact CONT (Intact CONT = +100%; CX CONT = 0%) VP: prostate weight
Human Androgen Receptor = biological target: T1, Human Androgen Receptor (Homo sapiens, UniProt P10275); assay type: binding
T1 construct: expressed in transfected cells; host or cells: HEK-293 cells stably transfected with the pCMVneo-hAR plasmid (G-418 selection); cytosol used
T1 sequence (P10275 1-920): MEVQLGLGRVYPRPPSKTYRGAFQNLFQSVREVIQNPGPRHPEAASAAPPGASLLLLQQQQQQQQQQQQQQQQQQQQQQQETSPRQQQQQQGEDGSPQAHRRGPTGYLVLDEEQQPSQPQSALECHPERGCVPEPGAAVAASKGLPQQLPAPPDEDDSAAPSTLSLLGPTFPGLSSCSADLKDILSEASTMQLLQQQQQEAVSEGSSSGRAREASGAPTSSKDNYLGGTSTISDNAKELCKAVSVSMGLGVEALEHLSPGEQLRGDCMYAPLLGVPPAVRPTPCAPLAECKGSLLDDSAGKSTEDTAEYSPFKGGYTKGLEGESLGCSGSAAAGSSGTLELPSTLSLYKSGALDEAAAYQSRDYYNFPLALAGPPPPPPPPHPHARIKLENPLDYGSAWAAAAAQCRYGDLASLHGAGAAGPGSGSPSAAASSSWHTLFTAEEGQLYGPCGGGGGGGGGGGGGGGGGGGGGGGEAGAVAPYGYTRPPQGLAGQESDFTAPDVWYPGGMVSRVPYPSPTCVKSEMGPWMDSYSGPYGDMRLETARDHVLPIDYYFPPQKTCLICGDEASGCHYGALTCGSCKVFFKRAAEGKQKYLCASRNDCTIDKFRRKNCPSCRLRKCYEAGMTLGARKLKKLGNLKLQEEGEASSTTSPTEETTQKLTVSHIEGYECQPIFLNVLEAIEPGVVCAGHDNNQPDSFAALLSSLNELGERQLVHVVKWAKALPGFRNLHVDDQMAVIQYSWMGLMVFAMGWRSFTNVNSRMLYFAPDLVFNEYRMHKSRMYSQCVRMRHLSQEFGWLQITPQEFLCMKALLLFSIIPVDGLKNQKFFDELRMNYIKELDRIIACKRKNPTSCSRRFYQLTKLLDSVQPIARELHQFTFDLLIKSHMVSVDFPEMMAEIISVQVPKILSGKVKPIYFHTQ

[1] = tested on: Shionogi mouse mammary carcinoma cells; experiment: cells; assay type: cell-based; conditions: for inhibition at 0.0003 µM: Mus musculus, read-out: % of inh of DHT at 10^−7 M (Basal = 100%)
Immature Rat CX + DHT = experiment: animal or person; assay type: in vivo; conditions: rat, in vivo, po
in vivo = conditions: male, Sprague-Dawley, rat, plasma, po, 0.5 mg/animal

Row | Structure (SMILES) | activity profile (antiandrogen, SARM or androgen) (androgen receptor) | In Vivo Intact Rat % change vs Intact CONT (Intact CONT = +100%; CX CONT = 0%) Bulbo (Intact Rat) | In Vivo Intact Rat % change vs Intact CONT (Intact CONT = +100%; CX CONT = 0%) VP (Intact Rat) | In Vivo Intact Rat % change vs Intact CONT (Intact CONT = +100%; CX CONT = 0%) SZ (Intact Rat) | Human Androgen Receptor Binding RBA (%) R1881 = 100% (Human Androgen Receptor) [%] | % of stim of basal at 10^−7M (% over basal) [1] | % of stim of basal at 10^−7 M (DHT = 100%) [1] | inhibition at 0.0003 µM [1] [%] | In Vivo Agonist Rat CX % change vs CX (DHT CONT = +100%) Bulbo (Immature Rat CX) | In Vivo Agonist Rat CX % change vs CX (DHT CONT = +100%) SV (Immature Rat CX) | In Vivo Agonist Rat CX % change vs CX (DHT CONT = +100%) VP (Immature Rat CX) | In Vivo Anti-A Rat CX + DHT % change vs DHT (CX CONT = −100%) SV (Immature Rat CX + DHT) | In Vivo Anti-A Rat CX + DHT % change vs DHT (CX CONT = −100%) VP (Immature Rat CX + DHT) | AUC(0-t) (in vivo) [ng·h/mL] | In Vivo Anti-A Rat CX + DHT % change vs DHT (CX CONT = −100%) Bulbo (Immature Rat CX + DHT)
1 | CC1CC2(C)C(CCC2(O)Cc2cc[n+]([O-])cc2)C2CCc3c(ccc(C#N)c3Cl)C12 (stereo not shown) [EM-5697] | pure androgen |  |  |  |  |  |  |  |  |  |  |  |  |  | 
2 | C[C@H]1C[C@@]2(C)C(CC[C@@]2(O)Cc2cc[n+]([O-])cc2)C2CCc3c(ccc(C#N)c3F)C21 (stereo partly shown) [EM-6583] | became a SARM | +145 ± 46% | +90 ± 2% | +71 ± 16% | 21 | +138 ± 49% | +52 ± 27% | 46 | +93 ± 15% | +17 ± 3% | +37 ± 7% | −75 ± 5% | −46 ± 6% |  | 
3 | C[C@@]1(Cc2ccc(C#N)cc2)CC2C3CCc4c(C#N)cccc4C3CC[C@]2(C)[C@H]1O (stereo partly shown) [EM-3585] |  | +263 ± 64% | +82 ± 17% | +114 ± 23% | 55 | +279% | +63% | 41 | +74 ± 18% | +13 ± 4% | +20 ± 4% | [−2 ± 15] % | [−26 ± 7] % | 2370 ± 253 | [+67 ± 21] %
